Data from patent publication US11091478B2 (Fochon Pharmaceuticals, Ltd., priority 2017, dated 2021).
pIC50: −log10 of the molar value.

Assays:
RS4;11 cells = test: Cell proliferation assay (MTS), RS4;11 cells, 72 h; format: cell-based; conditions: Homo sapiens, RS4-11, 72 h
How it was run: (§1)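 Proliferation was scored by MTS (2 h, then SDS stop, A490 with 650 nm reference) and IC50 derived. Compound ran at nine final concentrations from 1.5 to 10000 nM. DOHH2 were incubated 120 h and RS4;11 72 h, both plated at 5000 cells/well in RPMI-1640 plus 10% FBS.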

DOHH2 cells = test: Cell proliferation assay (MTS), DOHH2 cells, 120 h; format: cell-based; conditions: Homo sapiens, DOHH-2, 120 h
How it was run: as §1

pIC50 (RS4;11 cells) | Structure (SMILES) | pIC50 (DOHH2 cells)
9.00 | COC(=O)N1CCC([C@H]2COc3cc(S(=O)(=O)NC(=O)c4ccc(N5CCN(CC6=C(c7ccc(Cl)cc7)CC(C)(C)CC6)CC5)cc4Oc4cnc5[nH]ccc5c4)cc([N+](=O)[O-])c3N2)CC1 [Example 2-230, methyl (S)-4-(7-(N-(2-((1H-pyrrolo[2,3-b]pyridin-5-yl)oxy)-4-(4-((4′-chloro-5,5-dimethyl-3,4,5,6-tetrahydro-[1,1′-biphenyl]-2-yl)methyl)piperazin-1-yl)benzoyl)sulfamoyl)-5-nitro-3,4-dihydro-2H-benzo[b][1,4]oxazin-3-yl) piperidine-1-carboxylate] | 8.70
9.00 | CC(=O)N1CCC([C@H]2COc3cc(S(=O)(=O)NC(=O)c4ccc(N5CCN(CC6=C(c7ccc(Cl)cc7)CC(C)(C)CC6)CC5)cc4Oc4cnc5[nH]ccc5c4)cc([N+](=O)[O-])c3N2)CC1 [Example 2-231, (S)-2-((1H-pyrrolo[2,3-b]pyridin-5-yl)oxy)-N-((3-(1-acetylpiperidin-4-yl)-5-nitro-3,4-dihydro-2H-benzo[b][1,4]oxazin-7-yl)sulfonyl)-4-(4-((4′-chloro-5,5-dimethyl-3,4,5,6-tetrahydro-[1,1′-biphenyl]-2-yl)methyl)pi-perazin-1-yl)benzamide] | 8.30
8.00 | CC1(C)CCC(c2ccc(Cl)cc2)=C(CN2CCN(c3ccc(C(=O)NS(=O)(=O)c4cc5c(c([N+](=O)[O-])c4)N[C@@H](CC4CCOCC4)CO5)c(Oc4cnc5[nH]ccc5c4)c3)CC2)C1 [Example 2-235, (S)-2-((1H-pyrrolo[2,3-b]pyridin-5-yl)oxy)-4-(4-((4′-chloro-4,4-dimethyl-3,4,5,6-tetra-hydro-[1,1′-biphenyl]-2-yl)methyl)piperazin-1-yl)-N-((5-nitro-3-((tetrahydro-2H-pyran-4-yl)methyl)-3,4-dihdyro-2H-benzo[b] [1,4]oxazin-7-yl)sulfonyl)benzamide] | 7.64
8.05 | CC1(C)CCC(CN2CCN(c3ccc(C(=O)NS(=O)(=O)c4cc5c(c([N+](=O)[O-])c4)N[C@H](C4CCCCC4)CO5)c(Oc4cnc5[nH]ccc5c4)c3)CC2)=C(c2ccc(Cl)cc2)C1 [Example 2-238, (R)-2-((1H-pyrrolo[2,3-b]pyridin-5-yl)oxy)-4-(4-((4′-chloro-5,5-dimethyl-3,4,5,6-tetra-hydro-[1,1′-biphenyl]-2-yl)methyl)piperazin-1-yl)-N-((3-cyclohexyl-5-nitro-3,4-dihydro-2H-benzo[b][1,4]oxazin-7-yl)sulfo-nyl)benzamide] | 7.74
8.05 | CC1(C)CCC(c2ccc(Cl)cc2)=C(CN2CCN(c3ccc(C(=O)NS(=O)(=O)c4cc5c(c([N+](=O)[O-])c4)N[C@H](CO[C@H]4CC[C@H](O)CC4)CO5)c(Oc4cnc5[nH]ccc5c4)c3)CC2)C1 [Example 2-243, 2-((1H-pyrrolo[2,3-b]pyridin-5-yl)oxy)-4-(4-((4′-chloro-4,4-dimethyl-3,4,5,6-tetrahydro-[1,1′-biphenyl]-2-yl)methyl)piperazin-1-yl)-N-(((R)-3-((((1r,4R)-4-hydroxycyclo-hexyl)oxy)methyl)-5-nitro-3,4-dihydro-2H-benzo[b][1,4]oxazin-7-yl)sulfonyl)benzamide] | 9.00
9.00 | CC1(C)CCC(CN2CCN(c3ccc(C(=O)NS(=O)(=O)c4cc5c(c([N+](=O)[O-])c4)N[C@@H](C4CCC(O)CC4)CO5)c(Oc4cnc5[nH]ccc5c4)c3)CC2)=C(c2ccc(Cl)cc2)C1 (stereo partly drawn) [Example 2-245A, (S)-2-((1H-pyrroo[2,3-b]pyridin-5-yl)oxy)-4-(4-((4′-chloro-5,5-dimethyl-3,4,5,6-tetra-hydro-[1,1′-biphenyl]-2-yl)methyl)piperazin-1-yl)-N-((3-(4-hydroxycyclohexyl)-5-nitro-3,4-dihydro-2H-benzo[b][1,4]oxazin-7-yl)sulfonyl)benzamide] | 9.00

More lines, now with the values behind:

Structure (SMILES) | pIC50 (RS4;11 cells) | pIC50 (DOHH2 cells)
CC1(C)CCC(CN2CCN(c3ccc(C(=O)NS(=O)(=O)c4cc5c(c([N+](=O)[O-])c4)N[C@H](C4CCNCC4)CO5)c(Oc4cnc5[nH]ccc5c4)c3)CC2)=C(c2ccc(Cl)cc2)C1 [Example 2-226, (R)-2-((1H-pyrrolo[2,3-b]pyridin-5-yl)oxy)-4-(4-((4′-chloro-5,5-dimethyl-3,4,5,6-tetra-hydro-[1,1′-biphenyl]-2-yl)methyl)piperazin-1-yl)-N-((5-nitro-3-(piperidin-4-yl)-3,4-dihydro-2H-benzo[b][1,4]oxazin-7-yl)sulfo-nyl)benzamide] | 8.00 | 7.32
CN1CCC([C@@H]2COc3cc(S(=O)(=O)NC(=O)c4ccc(N5CCN(CC6=C(c7ccc(Cl)cc7)CC(C)(C)CC6)CC5)cc4Oc4cnc5[nH]ccc5c4)cc([N+](=O)[O-])c3N2)CC1 [Example 2-227, (R)-2-((1H-pyrrolo[2,3-b]pyridin-5-yl)oxy)-4-(4-((4′-chloro-5,5-dimethyl-3,4,5,6-tetra-hydro-[1,1′-biphenyl]-2-yl)methyl)piperazin-1-yl)-N-((3-(1-methylpiperidin-4-yl)-5-ni-tro-3,4-dihydro-2H-benzo[b][1,4]oxazin-7-yl)sulfonyl)benzamide] | 9.00 | 8.22
CC1(C)CCC(CN2CCN(c3ccc(C(=O)NS(=O)(=O)c4cc5c(c([N+](=O)[O-])c4)N[C@@H](C4CCN(C(=O)OC(C)(C)C)CC4)CO5)c(Oc4cnc5[nH]ccc5c4)c3)CC2)=C(c2ccc(Cl)cc2)C1 [Example 2-229, tert-butyl (S)-4-(7-(N-(2-((1H-pyrrolo[2,3-b]pyridin-5-yl)oxy)-4-(4-((4′-chloro-5,5-dimethyl-3,4,5,6-tetrahydro-[1,1′-biphenyl]-2-yl)meth-yl)piperazin-1-yl)benzoyl)sulfamoyl)-5-nitro-3,4-dihydro-2H-benzo[b][1,4]oxazin-3-yl)piperidine-1-carboxylate] | 7.42 | 9.00
CC1(C)CCC(CN2CCN(c3ccc(C(=O)NS(=O)(=O)c4cc5c(c([N+](=O)[O-])c4)N[C@@H](C4CCN(S(C)(=O)=O)CC4)CO5)c(Oc4cnc5[nH]ccc5c4)c3)CC2)=C(c2ccc(Cl)cc2)C1 [Example 2-232, (S)-2-((1H-pyrrolo[2,3-b]pyridin-5-yl)oxy)-4-(4-((4′-chloro-5,5-dimethyl-3,4,5,6-tetra-hydro-[1,1′-biphenyl]-2-yl)methyl)piperazin-1-yl)-N-((3-(1-(methyslulfonyl)piperidin-4-yl)-5-nitro-3,4-dihydro-2H-benzo[b][1,4]oxazin-7-yl)sulfonyl)benzamide] | 8.22 | 9.00
CN1CCC([C@H]2COc3cc(S(=O)(=O)NC(=O)c4ccc(N5CCN(CC6=C(c7ccc(Cl)cc7)CC(C)(C)CC6)CC5)cc4Oc4cnc5[nH]ccc5c4)cc([N+](=O)[O-])c3N2)CC1 [Example 2-233, (S)-2-((1H-pyrrolo[2,3-b]pyridin-5-yl)oxy)-4-(4-((4′-chloro-5,5-dimethyl-3,4,5,6-tetra-hydro-[1,1′-biphenyl]-2-yl)methyl)piperazin-1-yl)-N-((3-(1-methylpiperidin-4-yl)-5-ni-tro-3,4-dihydro-2H-benzo[b][1,4]oxazin-7-yl)sulfonyl)benzamide] | 7.77 | 7.89
CC1(C)CCC(c2ccc(Cl)cc2)=C(CN2CCN(c3ccc(C(=O)NS(=O)(=O)c4cc5c(c([N+](=O)[O-])c4)N[C@H](COC4CCOCC4)CO5)c(Oc4cnc5[nH]ccc5c4)c3)CC2)C1 [Example 2-234, (R)-2-((1H-pyrrolo[2,3-b]pyridin-5-yl)oxy)-4-(4-((4′-chloro-4,4-dimethyl-3,4,5,6-tetra-hydro-[1,1′-biphenyl]-2-yl)methyl)piperazin-1-yl)-N-((5-nitro-3-(((tetrahydro-2H-pyran-4-yl)oxy)methyl)-3,4-dihydro-2H-benzo [b][1,4]oxazin-7-yl)sulfonyl)benzamide] | 7.85 | 8.22
CC(C)OC[C@@H]1COc2cc(S(=O)(=O)NC(=O)c3ccc(N4CCN(CC5=C(c6ccc(Cl)cc6)CC(C)(C)CC5)CC4)cc3Oc3cnc4[nH]ccc4c3)cc([N+](=O)[O-])c2N1 [Example 2-236, (R)-2-((1H-pyrrolo[2,3-b]pyridin-5-yl)oxy)-4-(4-((4′-chloro-5,5-dimethyl-3,4,5,6-tetra-hydro-[1,1′-biphenyl]-2-yl)methyl)piperazin-1-yl)-N-((3-(isopropoxymethyl)-5-nitro-3,4-dihydro-2H-benzo[b][1,4]oxazin-7-yl)sulfonyl)benzamide] | 9.00 | 8.22
CC(C)OC[C@H]1COc2cc(S(=O)(=O)NC(=O)c3ccc(N4CCN(CC5=C(c6ccc(Cl)cc6)CC(C)(C)CC5)CC4)cc3Oc3cnc4[nH]ccc4c3)cc([N+](=O)[O-])c2N1 [Example 2-237, (S)-2-((1H-pyrrolo[2,3-b]pyridin-5-yl)oxy)-4-(4-((4′-chloro-5,5-dimethyl-3,4,5,6-tetra-hydro-[1,1′-biphenyl]-2-yl)methyl)piperazin-1-yl)-N-((3-(isopropoxymethyl)-5-nitro-3,4-dihydro-2H-benzo[b][1,4]oxazin-7-yl)sulfonyl)benzamide] | 7.85 | 8.52
CC1(C)CCC(CN2CCN(c3ccc(C(=O)NS(=O)(=O)c4cc5c(c([N+](=O)[O-])c4)N[C@@H](COC4CC4)CO5)c(Oc4cnc5[nH]ccc5c4)c3)CC2)=C(c2ccc(Cl)cc2)C1 [Example 2-241, (S)-2-((1H-pyrrolo[2,3-b]pyridin-5-yl)oxy)-4-(4-((4′-chloro-5,5-dimethyl-3,4,5,6-tetra-hydro-[1,1′-biphenyl]-2-yl)methyl)piperazin-1-yl)-N-((3-(cyclopropoxymethyl)-5-nitro-3,4-dihydro-2H-benzo[b][1,4]oxazin-7-yl)sulfonyl)benzamide] | 8.40 | 7.96
